Measured values published in patent US6528516B1, “Methods for reducing intraocular pressure using A3 adenosine receptor antagonists” (Trustees of the University of Pennsylvania, The Center for …, priority 1998, dated 2003).
“Also recorded” adds a separate entry of the source.

Tests used:
[1] = system: HCE (human ciliary epithelial) cell line, NPE cells; assay: Cell volume (shrinkage) of NPE cells in isosmotic solution, Coulter Counter, 5 μM gramicidin; format: cell-based; conditions: for effect of A3 antagonist on adenosine-stimulated isotonic shrinkage: 300 nM MRS-1097, 100 nM MRS-1191, 100 nM MRS-1523, 10 μM adenosine; for effect of A3 antagonist on IB-MECA-stimulated isotonic shrinkage: 2 min preincubation, MRS-1097 300 nM, MRS-1191 100 nM, 100 nM IB-MECA; for effect of A3 antagonist on shrinkage triggered by 3 μM CGS-21680: 100 nM MRS-1191 preincubation
Procedure: A 0.5-ml aliquot of the HCE cell suspension in DMEM was added to 20 ml of each test solution, which contained (in mM): 110.0 NaCl, 15.0HEPES [4-(2-hydroxyethyl)-1-piperazineethanesulfonic acid], 2.5 CaCl2, 1.2 MgCl2, 4.7 KCl, 1.2 KH2PO4, 30.0 NaHCO3, and 10.0 glucose, at a pH of 7.4 and osmolality of 298-305 mOsm. Parallel aliquots of cells were studied on the same day. One aliquot usually served as a control, and the others were exposed to different experimental conditions at the time of suspension. The same amount of solvent vehicle (dimethylformamide, DMSO or ethanol) was always added to the control and experimental aliquots. The sequence of studying the suspensions was varied to preclude systematic time-dependent artifacts (Civan et al., Exp. Eye Res. 54:181-191, 1992).
Cell volumes of isosmotic suspensions were measured with a Coulter Counter (model ZBI-Channelyzer II), using a 100-μm aperture (Civan et al., supra., 1994). As previously described (Wax et al., supra., 1993), the cell volume (vC) of the suspension was taken as the peak of the distribution function. Cell shrinkage was fit as a function of time (t) to a monoexponential function:
vC=v∞+(v0−v∞)−[e^−(t−t^0^)/τ] {1}
where v∞ is the steady-state cell volume, v0 is the cell volume at the first point (t0) of the time course to be fit, and τ is the time constant of the shrinkage. For purposes of data reduction, the data were normalized to the first time point, taken to be 100% isotonic volume. Fits were obtained by nonlinear least-squares regression analysis, permitting both v∞and τ to be variables.
In order to differentiate among these receptors, the experiments were repeated in the present study using a series of agonists and antagonists selective for these receptors. As we wished to identify the effects of these receptors specifically on Cl^− channels, 5 μM gramicidin D was included in all solutions to eliminate any potential contribution from K^+ channels. This ionophore readily partitions into plasma membranes to form a cation-selective pore, and is widely used for studying volume regulation (Hoffmann et al., in Interaction of Cell Volume and Cell Function, Lang et al., eds., Springer, Heidelberg, Germany, pp. 188-248, (ACEP Series 14), 1993)). Under these conditions, release of cell Cl^− becomes the rate-limiting factor in both hypo-(Civan et al., Exp. Eye Res. 54:181-191, 1992) and isoosmotic cell shrinkage (Carre et al., supra., 1997).

A1 and A2A receptors = assay: Estimated occupancy of A1 and A2A receptors at the concentrations used; conditions: at the concentrations used (300 nM MRS 1097, 100 nM MRS 1191, 100 nM MRS 1523)
human A2 receptors = conditions: read-out: Ki for binding to human A2 receptors; cited from earlier work
[2] = target: T1, recombinant human A2B receptors (Homo sapiens, UniProt P29275); assay: Radioligand binding to recombinant human A2B receptors; conditions: at 10 μM
T1 sequence (P29275 1-332): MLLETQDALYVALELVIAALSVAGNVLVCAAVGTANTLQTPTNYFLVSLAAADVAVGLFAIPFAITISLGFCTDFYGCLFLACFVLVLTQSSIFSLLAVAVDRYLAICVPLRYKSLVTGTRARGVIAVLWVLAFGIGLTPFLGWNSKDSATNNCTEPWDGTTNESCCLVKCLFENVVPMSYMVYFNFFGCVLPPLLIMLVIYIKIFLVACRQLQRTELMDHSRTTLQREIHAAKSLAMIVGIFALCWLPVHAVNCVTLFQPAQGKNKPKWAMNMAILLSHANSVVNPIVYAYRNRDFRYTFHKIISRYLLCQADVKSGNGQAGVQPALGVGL

A1 receptors = target: T2, A1 receptors (Rattus norvegicus, UniProt P25099); assay: Radioligand binding, [3H]R-PIA, rat cerebral cortex membranes
T2 construct: A1 receptors from rat cerebral cortex membranes; from tissue; host or cells: rat cerebral cortex membranes
T2 sequence (P25099 1-326): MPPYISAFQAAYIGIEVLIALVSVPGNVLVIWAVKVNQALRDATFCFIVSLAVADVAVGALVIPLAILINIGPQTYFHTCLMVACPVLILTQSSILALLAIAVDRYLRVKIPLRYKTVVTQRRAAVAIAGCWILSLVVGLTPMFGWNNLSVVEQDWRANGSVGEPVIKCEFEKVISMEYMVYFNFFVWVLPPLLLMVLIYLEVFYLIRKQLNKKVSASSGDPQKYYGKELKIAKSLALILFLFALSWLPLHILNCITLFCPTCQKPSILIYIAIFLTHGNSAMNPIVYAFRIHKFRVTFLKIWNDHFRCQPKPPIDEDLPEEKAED
Procedure: (§1) Radioligand binding studies. Binding of [^3H]R-N^6-phenylisopropyladenosine ([^3H]R-PIA) to A1 receptors from rat cerebral cortex membranes and of [^3H]-2-[4-[(2-carboxyethyl)phenyl]ethylamino]-5′-N-ethylcarbamoyladenosine ([^3H]CGS 21680) to A2A receptors from rat striatal membranes was performed as described previously (Schwabe et al., Naunyn Schmiedeberg Arch. Pharmacol. 313:179-187, 1980; Jarvis et al., J. Pharmacol. Exp. Ther. 251:888-893, 1989) Adenosine deaminase (3 units/mL) was present during the preparation of the brain membranes, in a pre-incubation of 30 min at 30° C., and during the incubation with the radioligands. Nonspecific binding was determined in the presence of 10 μM (A1 receptors) or 20 μM (A2A receptors)2-chloroadenosine.
(§2) All non-radioactive compounds were initially dissolved in DMSO, and diluted with buffer to the final concentration, where the amount of DMSO never exceeded 1%. Incubations were terminated by rapid filtration over Whatman GF/B filters, using a Brandell cell harvester (Brandell, Gaithersburg, MD). The tubes were rinsed three times with 3 mL buffer each.
(§3) At least five different concentrations of competitor, spanning 3 orders of magnitude adjusted appropriately for the IC50 of each compound, were used.

A2A receptors = target: T3, A2A receptors (Rattus norvegicus, UniProt P30543); assay: Radioligand binding, [3H]CGS 21680, rat striatal membranes; conditions: at 100 μM
T3 construct: to A2A receptors from rat striatal membranes; from tissue; host or cells: rat striatal membranes
T3 sequence (P30543 whole entry): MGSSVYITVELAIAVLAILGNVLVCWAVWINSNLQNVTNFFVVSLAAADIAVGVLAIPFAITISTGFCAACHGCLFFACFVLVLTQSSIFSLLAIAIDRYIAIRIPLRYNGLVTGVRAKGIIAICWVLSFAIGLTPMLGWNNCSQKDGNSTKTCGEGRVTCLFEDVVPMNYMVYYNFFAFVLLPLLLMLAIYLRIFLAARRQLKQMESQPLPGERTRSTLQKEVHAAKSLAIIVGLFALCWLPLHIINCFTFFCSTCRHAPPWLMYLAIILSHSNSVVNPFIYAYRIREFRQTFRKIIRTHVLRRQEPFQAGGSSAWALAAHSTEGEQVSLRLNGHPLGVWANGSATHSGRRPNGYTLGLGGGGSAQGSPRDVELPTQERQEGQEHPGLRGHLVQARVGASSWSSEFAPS
Procedure: as §1, §2, §3

[3] = Oxidation of 1-methyl-1,4-dihydropyridine in rat brain homogenate; format: in vitro ADME; conditions: rat brain homogenate supernatant, pH 7.4, 37 C, read-out: t½ of oxidation to pyridinium salt 11
Procedure: The rat brain homogenate was prepared by the following method. One rat ([…]) was killed and the brain (weighing 2.26 g) was removed, and homogenized in 12 mL PBS (Biofluids, Inc., 1×pH 7.4). The homogenate was centrifuged at 12,000×rpm, and the supernatant was used. 5 mg of 24 dissolved in 0.2 mL of DMSO was mixed with 10 mL of brain homogenate (initial concentration of 1.27 mM), which was previously equilibrated to 37° C. in a water bath incubator, and shaking was continued at that temperature. Aliquots of 500 μL were withdrawn at 2, 4, 8, 16, 32, 64, 128, 256, 768 min (2×each) from the test medium, added immediately to 3 mL of ice-cold ethyl ether, shaken vigorously, and placed in a freezer. When all samples had been collected, and the ether layer of each sample was separated. After evaporation of the ether, each residue was dissolved in 200 μL methanol, filtered through Whatman 1 filter paper and analyzed by HPLC.
Pyridinium salt 11 could be generated through oxidation of the corresponding reduced precursor, 1-methyl-2,4-diethyl-3-(ethylsulfanylcarbonyl)-5-ethyloxycarbonyl-6-phenyl-1,4-dihydropyridine, 24. The conversion of 24 to 11 by chemical means (iodine in nitromethane) and during incubation at 37 C with rat brain membranes, to simulate in vivo conditions, was studied. The chemical conversion occurred readily, and the time course of the biochemical oxidation was recorded . […]

human A3 receptor = target: T4, human A3 receptor (Homo sapiens, UniProt P0DMS8); assay: Radioligand binding, [125I]AB-MECA, HEK-293 cell membranes; design: host or cells: HEK-293; conditions: read-out: Ki(hA3)
T4 sequence (P0DMS8 1-318): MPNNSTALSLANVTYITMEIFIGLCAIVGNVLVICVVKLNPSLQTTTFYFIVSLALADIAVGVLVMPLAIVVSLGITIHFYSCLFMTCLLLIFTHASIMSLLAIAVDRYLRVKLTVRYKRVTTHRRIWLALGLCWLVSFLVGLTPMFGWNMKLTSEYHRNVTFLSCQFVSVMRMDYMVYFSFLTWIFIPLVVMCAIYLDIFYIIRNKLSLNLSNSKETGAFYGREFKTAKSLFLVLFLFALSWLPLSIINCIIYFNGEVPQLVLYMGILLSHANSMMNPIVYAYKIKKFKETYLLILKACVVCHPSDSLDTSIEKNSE
Procedure: Natl. Acad. Sci. […] Natl. Acad. Sci. U.S.A. 89:7432-7436, 1992) was performed as described at 4° C. (Olah et al., Mol. Pharmacol. 45:978-982, 1994). The assay medium consisted of a buffer containing 10 mM Mg^2+, 50 mM Tris, 3 units/mL adenosine deaminase, and 1 mM EDTA, at pH 8.0 (4° C.). […] Incubations were terminated by rapid filtration over Whatman GF/B filters, using a Brandell cell harvester (Brandell, Gaithersburg, MD). The tubes were rinsed three times with 3 mL buffer each. At least five different concentrations of competitor, spanning 3 orders of magnitude adjusted appropriately for the IC50 of each compound, were used. IC50 values, calculated with the nonlinear regression method implemented in the InPlot program (Graph-PAD, San Diego, Calif.), were converted to apparent Ki values using the Cheng-Prusoff equation (Cheng et al., Biochem.

| share of the A1 and A2A receptors that could have been occupied (A1 and A2A receptors) [%] | displacement of radioligand binding to recombinant human A2B receptors [2] | Ki (A1 receptors) [µM] | percent displacement of specific radioligand binding at rat A2A receptors (A2A receptors) [%] | half-life at 1.27 mM [3] [min] | Ki (human A3 receptor) [µM] | Molecule | effect of A3 antagonist on adenosine-stimulated isotonic shrinkage [1] | effect of A3 antagonist on adenosine-stimulated isotonic shrinkage ([1]; listed as MRS 1097) | effect of A3 antagonist on IB-MECA-stimulated isotonic shrinkage [1] | effect of A3 antagonist on IB-MECA-stimulated isotonic shrinkage ([1]; listed as MRS 1097) | Ki (human A2 receptors) [µM] | effect of A3 antagonist on shrinkage triggered by 3 μM CGS-21680 [1] | effect of A3 antagonist on shrinkage triggered by 3 μM CGS-21680 ([1]; listed as MRS 1191) | effect on cell volume in the absence of IB-MECA ([1]; 100 nM antagonist alone) | effect of A3 antagonist on adenosine-stimulated isotonic shrinkage ([1]; listed as MRS 1191) | effect of A3 antagonist on IB-MECA-stimulated isotonic shrinkage ([1]; listed as MRS 1191) |
| --- | --- | --- | --- | --- | --- | --- | --- | --- | --- | --- | --- | --- | --- | --- | --- | --- |
| < 20 | – | – | – | – | – | 3-ethyl 5-benzyl-2-methyl-6-phenyl-4-styryl-1,4-(±)-dihydropyridine-3,5-dicarboxylate [MRS-1097] | prevented the characteristic shrinkage | blocked the shrinkage | prevented shrinkage | blocked the isoomotic shrinkage; also recorded: prevented the subsequent response; also recorded: prevent the shrinkage | 4.77 | – | – | – | – | – |
| – | did not displace radioligand binding | – | – | – | – | CCOC(=O)C1=C(C)NC(c2ccccc2)=C(C(=O)OCc2ccccc2)C1C#Cc1ccccc1 (racemic) [MRS-1191, 3-ethyl 5-benzyl-2-methyl-6-phenyl-4-phenylethynyl-1,4-(±)-dihydropyridine-3,5-dicarboxylate] | prevented the characteristic shrinkage | – | prevented characteristic shrinkage | – | > 100 | abolished this effect; also recorded: blocked | prevented this shrinkage | did not affect cell volume | blocked the shrinkage | prevent the shrinkage |
| – | – | 28.4 ± 2.5 | 48±7 | ~47 | 0.379 ± 0.122 | CCOC(=O)C1=C(c2ccccc2)N(C)C(CC)=C(C(=O)SCC)C1CC (stereo not shown) [Compound 24, 1-Methyl-2,4-diethyl-3-(ethylsulfanylcarbonyl)5-ethyloxycarbonyl-6-phenyl-1,4-dihydropyridine] | – | – | – | – | – | – | – | – | – | – |
